# Results as given in patent US4438031A, “N-(Alkylsulfonyl)-L-proline amide and N-(alkylsulfonyl)-2-carboxylic acid amide-indoline derivatives” (American Home Products Corporation, priority 1982, dated 1984).
# Structures can show the parent of a compound that is named as a salt.
# Legend:
# [1] = biological target: T1, angiotensin converting enzyme (Oryctolagus cuniculus, UniProt P12822); assay: in vitro angiotensin converting enzyme (ACE) inhibition, rabbit lung extract, substrate hippuryl-L-histidyl-L-leucine (Cushman et al.); assay type: biochemical
# T1 construct: The in vitro assay utilizes rabbit lung extract; from tissue; host or cells: rabbit lung extract
# T1 sequence (P12822 34-1310): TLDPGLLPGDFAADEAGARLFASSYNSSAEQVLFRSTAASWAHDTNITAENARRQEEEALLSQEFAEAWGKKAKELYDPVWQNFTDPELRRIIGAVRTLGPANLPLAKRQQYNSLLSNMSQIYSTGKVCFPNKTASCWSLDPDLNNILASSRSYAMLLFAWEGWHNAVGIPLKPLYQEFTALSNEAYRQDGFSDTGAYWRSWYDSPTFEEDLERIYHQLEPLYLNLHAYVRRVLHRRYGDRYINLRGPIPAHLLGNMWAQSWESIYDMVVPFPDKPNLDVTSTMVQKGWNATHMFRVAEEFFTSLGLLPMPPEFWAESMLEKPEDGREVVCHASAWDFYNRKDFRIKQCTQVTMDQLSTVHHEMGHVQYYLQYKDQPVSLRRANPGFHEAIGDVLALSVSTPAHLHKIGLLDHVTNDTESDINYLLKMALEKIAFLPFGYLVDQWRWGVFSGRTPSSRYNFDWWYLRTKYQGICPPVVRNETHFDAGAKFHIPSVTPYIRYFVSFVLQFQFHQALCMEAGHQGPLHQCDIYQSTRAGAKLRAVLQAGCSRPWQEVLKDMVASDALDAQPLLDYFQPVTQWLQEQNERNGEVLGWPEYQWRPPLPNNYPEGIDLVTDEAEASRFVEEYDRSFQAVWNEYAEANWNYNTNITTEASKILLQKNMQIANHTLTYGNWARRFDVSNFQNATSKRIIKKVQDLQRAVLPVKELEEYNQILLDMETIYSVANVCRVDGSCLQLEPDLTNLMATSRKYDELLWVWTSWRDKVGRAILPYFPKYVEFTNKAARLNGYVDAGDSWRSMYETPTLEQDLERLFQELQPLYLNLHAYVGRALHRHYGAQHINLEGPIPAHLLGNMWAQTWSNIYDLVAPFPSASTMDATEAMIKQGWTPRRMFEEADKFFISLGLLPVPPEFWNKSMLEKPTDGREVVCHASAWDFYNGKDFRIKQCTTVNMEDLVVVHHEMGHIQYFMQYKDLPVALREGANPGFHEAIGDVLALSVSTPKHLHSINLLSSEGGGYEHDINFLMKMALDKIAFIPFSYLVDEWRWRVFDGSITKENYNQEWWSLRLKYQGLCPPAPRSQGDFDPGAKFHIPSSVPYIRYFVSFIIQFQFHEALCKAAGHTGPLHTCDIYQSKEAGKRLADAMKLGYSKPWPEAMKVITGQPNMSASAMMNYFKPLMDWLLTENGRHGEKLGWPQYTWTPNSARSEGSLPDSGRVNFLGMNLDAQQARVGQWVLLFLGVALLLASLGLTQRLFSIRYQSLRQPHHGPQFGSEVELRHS
# Description: The angiotensin converting enzyme (ACE) inhibitory property of the compounds is measured in vitro and in vivo. The in vitro assay utilizes rabbit lung extract and a specific tripeptide substrate, hippuryl-L-histidyl-L-leucine being preferred, and follows the method of Cushman et al., Biochem. Pharmacol, 20, 1637-1648 (1971).
# [2] = humans with certain forms of hypertension; cited from earlier work
# [3] = oral administration; cited from earlier work
inhibition at 0.05 µg/mL ([1]; concentration 50 ng/ml) [%],inhibition at 1 µg/mL ([1]; concentration 1000 ng/ml) [%],Molecule,oral activity as an anti-hypertensive agent [3],further results
14 to 21,,"C[C@H](CSC(=O)c1ccccc1)C(=O)N1CCC[C@H]1C(=O)NS(C)(=O)=O [Example 3, Benzenecarbothioic Acid S-[(2S)-2-Methyl-3-[(2S)-2-[(Methylsulfonylamino)Carbonyl]-1-Pyrrolidinyl]-3-Oxopropyl]Ester]",,inhibition of angiotensin converting enzyme ([1]; concentration 100 ng/ml): 31-37%; inhibition of angiotensin converting enzyme ([1]; concentration 1000 ng/ml): 76-80%
,80,"C[C@H](CSC(=O)c1ccccc1)C(=O)N1CCC[C@H]1C(=O)NS(C)(=O)=O [Example 1, Benzenecarbothioic Acid S-[(2S)-2-Methyl-3-[(2S)-2-[(Methylsulfonylamino)Carbonyl]-1-Pyrrolidinyl]-3-Oxopropyl]Ester, Dicyclohexylamine Salt]",,"inhibition at 0.1 µg/mL ([1]; concentration 100 ng/ml): 35 to 38%; inhibition of angiotensin converting enzyme ([1]; concentration 100 ng/ml, listed as Example 2): 35-38%"

# The remaining lines, values behind:
Molecule,inhibition at 0.05 µg/mL ([1]; concentration 50 ng/ml) [%],inhibition at 1 µg/mL ([1]; concentration 1000 ng/ml) [%],oral activity as an anti-hypertensive agent [3],further results
Pyr-Trp-Pro-Arg-Pro-Gln-Ile-Pro-Pro (WPRPQIPP; N-terminal pyroglutamyl; printed: Trp-Pro-Arg-Pro-Gln-Ile-Pro-Pro) [BPP9a],,,not orally active,anti-hypertensive effect in clinical studies [2]: effective anti-hypertensive agent
"C[C@H](CS)C(=O)N1CCC[C@H]1C(=O)NS(C)(=O)=O [Example 4, (S)-1-[(2S)-3-Mercapto-2-Methyl-1-Oxopropyl]-N-(Methylsulfonyl)-2-Pyrrolidinecarboxamide]",32,89 to 92,,inhibition of angiotensin converting enzyme ([1]; concentration 50 ng/ml): 50-57%
C[C@H](CS)C(=O)N1CCCC1C(=O)O (stereo in doubt) [D-3-mercapto-2-methylpropanoyl-L-proline],,,effective when administered orally,
